For one assay, the target named is T1, recombinant HcProRS (Homo sapiens, UniProt P07814).
T1 construct: SUMO (N, cleaved yes); made in house; host or cells: E. coli Rosetta 2 (DE3) pLysS
T1 sequence (P07814 1001-1512): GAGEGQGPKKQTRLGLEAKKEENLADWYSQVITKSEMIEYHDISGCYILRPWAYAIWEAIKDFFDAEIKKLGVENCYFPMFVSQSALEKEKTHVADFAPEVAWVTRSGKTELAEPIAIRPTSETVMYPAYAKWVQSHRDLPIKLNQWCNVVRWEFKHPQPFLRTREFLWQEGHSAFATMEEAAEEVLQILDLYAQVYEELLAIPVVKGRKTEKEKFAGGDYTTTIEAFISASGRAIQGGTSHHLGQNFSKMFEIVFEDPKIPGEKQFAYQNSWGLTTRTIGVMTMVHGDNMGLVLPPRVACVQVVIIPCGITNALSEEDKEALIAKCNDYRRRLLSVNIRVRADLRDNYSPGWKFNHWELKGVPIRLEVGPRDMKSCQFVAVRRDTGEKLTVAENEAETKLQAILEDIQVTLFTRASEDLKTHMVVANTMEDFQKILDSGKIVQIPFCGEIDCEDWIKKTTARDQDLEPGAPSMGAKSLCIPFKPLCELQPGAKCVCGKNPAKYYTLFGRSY
Put plainly: fluorescence-based thermal shift assay (TSA). The class given is binding. The settings on record: for Tm with 1 mM L-Pro / Tm without L-Pro / ∆Tm without L-Pro / ∆Tm with 1 mM L-Pro: 100 µM compound; for Tm with 1 mM L-Pro / Tm without L-Pro / EC50 / ∆Tm without L-Pro / ∆Tm with 1 mM L-Pro: 3.45 µM HcProRS; for Tm with 1 mM L-Pro: reference Tm with Pro only 60.20; for Tm without L-Pro / ∆Tm without L-Pro: absence of Pro; for Tm without L-Pro: reference Tm of HcProRS 56.15; for ∆Tm without L-Pro: difference of Tm with and without compound; for ∆Tm with 1 mM L-Pro: versus HcProRS with 1 mM Pro only; for effect on Tm (in words): full datasets, with and without Pro; for fold better (lower) EC50 compared with 4d: relative to 4d. As to the method: Compound binding usually helps to stabilize the protein due to protein-ligand interactions, resulting in an increase of the melting temperature (Tm) of the target protein during the thermal denaturation process. Each compound was pre-tested at 100 µM concentration against 3.45 µM HcProRS in the absence and presence of 1 mM Pro. The ∆Tm was calculated based on the difference between the Tm values of HcProRS with and without compound. […] In the presence of the natural substrate Pro, the Tm of HcProRS increased by 4 °C. […] In a second-tier characterization, the Tm-based EC50 values of these five hits were determined. […] This is in good agreement with the prior reported improved binding affinity and inhibitory activity of 2a in the presence of Pro when compared to the corresponding values obtained without Pro [16].
A total of 0.2 mg/mL HcProRS (corresponding to 3.45 µM) was incubated with various concentrations of different compounds in the absence or presence of 1 mM L-Pro with 1x thermal shift dye (Life Technologies, California, USA) in reaction buffer containing 50 mM HEPES pH 7.0, 150 mM KCl and 10% (v/v) ethylene glycol. Aliquots (20 µL) were transferred to a 96-well PCR plate in triplicate. After centrifugation to remove air bubbles, the plate was measured in Applied Biosystems® Protein Thermal Shift machine and subjected to a thermal gradient from 4 °C to 95 °C with the increasing rate of 0.05 °C/s. The fluorescence was detected by Protein Thermal Shift™ Software (Life Technologies, California, USA). Data analysis was performed by Boltzmann sigmoidal fitting to calculate melting temperature (Tm).
Figure S2. Dose-response melting curves of HcProRS in the presence of compound and 1 mM Pro. The melting temperature (Tm) at each compound concentration was determined by TSA with 3.45 µM of HcProRS. The reported EC50 values are based on the fitted curves. All reactions were performed in triplicate, the average values and standard errors are shown.
(1 picture or pasted object on this page, not shown here)

A further assay concerns HcProRS versus ThrRS. Details: method as in PMID 28501621. Conditions: reportedly; cited from earlier work.
In assay [1] the test system is HcProRS. Details: method as in PMID 28501621. The settings on record: ATP/PPi exchange assay in vitro; read-out: IC50, HcProRS inhibitory activity; cited from earlier work.
The target in assay [2] is HcProRS. Details: method as in PMID 28501621. The settings on record: in the presence of Pro; cited from earlier work.
Where [3] appears, read: 1 mM Pro, read-out: EC50 (Tm-based) with 1 mM L-Pro.

Where “and” joins values, the source holds several entries; their conditions need not be identical. Equal entries are not always repeated. Where two headings read alike, the source gives them in different places.

Consider `O=C(NC1Cc2ccccc2C1)c1nccnc1NC(=O)C1CCCCC1` [2a, 3-(cyclohexanecarboxamido)-N-(2,3-dihydro-1H-inden-2-yl)pyrazine-2-carboxamide, reference compound], for which the “Tm with 1 mM L-Pro” value at recombinant HcProRS (1 mM Pro) is 73.35 °C. Moreover, at recombinant HcProRS, the “Tm without L-Pro” value amounted to 63.15 °C. Besides, the EC50 was determined as 3.74 ± 0.67 µM at recombinant HcProRS (setting [3]) and 30.3 ± 3.63 µM at recombinant HcProRS (no Pro, read-out: EC50 (Tm-based) in the absence of Pro). Further, in the assay with HcProRS versus ThrRS, the “selectivity for HcProRS versus ThrRS” value is reported as 2500 fold. In addition, the IC50 in the assay with HcProRS [1] was 12 nM. The Kd at HcProRS [2] is 0.76 nM.

Regarding `Nc1nccnc1C(=O)O` [3-NH2-POA, 3-aminopyrazinoic acid, reference compound], the “Tm with 1 mM L-Pro” value at recombinant HcProRS (1 mM Pro) is 59.50 °C. In addition, on recombinant HcProRS, the “∆Tm without L-Pro” value was −0.28 °C, the “Tm without L-Pro” value came to 55.87 °C, the “∆Tm with 1 mM L-Pro” value was −0.70 °C and the “effect on Tm (in words)” value is listed as “no effect on Tm”.

For `O=C(NCc1ccc(F)cc1)c1nccnc1NCc1ccc(F)cc1` [3a], at recombinant HcProRS (1 mM Pro), the “Tm with 1 mM L-Pro” value is 58.21 °C. On recombinant HcProRS, the “∆Tm without L-Pro” value was −0.90 °C, the “Tm without L-Pro” value was 55.25 °C and the “∆Tm with 1 mM L-Pro” value is −1.99 °C.

Consider `O=C(NCc1ccccc1Cl)c1nccnc1NCc1ccccc1Cl` [3b], for which, on recombinant HcProRS (1 mM Pro), the “Tm with 1 mM L-Pro” value was 64.92 °C. For the same compound, at recombinant HcProRS, the “∆Tm without L-Pro” value was −0.10 °C, the “Tm without L-Pro” value came out at 56.05 °C and the “∆Tm with 1 mM L-Pro” value is “+4.72 °C”. Also, the EC50 at recombinant HcProRS (setting [3]) came to 3.77 ± 0.85 µM. In addition, the “fold lower EC50 relative to 3c” value at recombinant HcProRS (TSA EC50 with 1 mM Pro, relative to 3c) was 2 fold. On recombinant HcProRS (TSA EC50 with 1 mM Pro, relative to 4h), the “fold lower EC50 compared with 4h” value came to 3.6 fold.

Regarding `Cc1ccccc1CNC(=O)c1nccnc1NCc1ccccc1C` [3c], the “Tm with 1 mM L-Pro” value at recombinant HcProRS (1 mM Pro) was determined as 62.72 °C. Also, on recombinant HcProRS, the “∆Tm without L-Pro” value was −0.90 °C, the “Tm without L-Pro” value was determined as 55.25 °C and the “∆Tm with 1 mM L-Pro” value is “+2.52 °C”. Moreover, on recombinant HcProRS (setting [3]), the EC50 was found to be 7.34 ± 1.66 µM. For the same compound, on recombinant HcProRS (TSA EC50 with 1 mM Pro), the “fold better (lower) EC50 compared with 4d” value (shortened to “fold better (lower) EC50”) was found to be 12.4 fold.

Take `NC(=O)c1nccnc1NCc1ccccc1` [4a]: the “Tm with 1 mM L-Pro” value at recombinant HcProRS (1 mM Pro) came out at 59.36 °C. Besides, at recombinant HcProRS, the “∆Tm without L-Pro” value was −0.35 °C, the “Tm without L-Pro” value stood at 55.80 °C and the “∆Tm with 1 mM L-Pro” value is −0.84 °C.

As for `NC(=O)c1nccnc1NCc1cccc(Cl)c1` [4b], on recombinant HcProRS (1 mM Pro), the “Tm with 1 mM L-Pro” value was 60.42 °C. On recombinant HcProRS, the “∆Tm without L-Pro” value was −0.77 °C, the “Tm without L-Pro” value was 55.38 °C and the “∆Tm with 1 mM L-Pro” value is “+0.22 °C”.

In the case of `NC(=O)c1nccnc1NCc1ccc(Cl)c(Cl)c1` [4c], the “Tm with 1 mM L-Pro” value on recombinant HcProRS (1 mM Pro) turned out to be 57.47 °C. Also, at recombinant HcProRS, the “∆Tm without L-Pro” value was −1.58 °C, the “Tm without L-Pro” value came out at 54.57 °C and the “∆Tm with 1 mM L-Pro” value was −2.73 °C.

Turning to `Cc1ccccc1CNc1nccnc1C(N)=O` [4d], the “Tm with 1 mM L-Pro” value at recombinant HcProRS (1 mM Pro) is 63.33 °C. At recombinant HcProRS, the “∆Tm without L-Pro” value was −0.24 °C, the “Tm without L-Pro” value was determined as 55.91 °C and the “∆Tm with 1 mM L-Pro” value is “+3.13 °C”. Also, the EC50 at recombinant HcProRS (setting [3]) was determined as 91.1 ± 18.4 µM.

Turning to `NC(=O)c1nccnc1NCc1ccc(Cl)cc1` [4e], at recombinant HcProRS (1 mM Pro), the “Tm with 1 mM L-Pro” value was found to be 58.70 °C. At recombinant HcProRS, the “∆Tm without L-Pro” value is −1.09 °C, the “Tm without L-Pro” value is 55.06 °C and the “∆Tm with 1 mM L-Pro” value was −1.5 °C.

For `COc1ccc(CNc2nccnc2C(N)=O)cc1` [4f], the “Tm with 1 mM L-Pro” value on recombinant HcProRS (1 mM Pro) came to 58.33 °C. On recombinant HcProRS, the “∆Tm without L-Pro” value is “+0.19 °C”, the “Tm without L-Pro” value stood at 56.34 °C and the “∆Tm with 1 mM L-Pro” value was −1.87 °C.

For the compound `Cc1ccc(CNc2nccnc2C(N)=O)cc1` [4g], at recombinant HcProRS (1 mM Pro), the “Tm with 1 mM L-Pro” value turned out to be 59.09 °C. On recombinant HcProRS, the “∆Tm without L-Pro” value is −0.39 °C, the “Tm without L-Pro” value stood at 55.76 °C and the “∆Tm with 1 mM L-Pro” value is −1.11 °C.

In the case of `NC(=O)c1nccnc1NCc1ccccc1Cl` [4h], the “Tm with 1 mM L-Pro” value on recombinant HcProRS (1 mM Pro) stood at 62.47 °C. Moreover, on recombinant HcProRS, the “Tm without L-Pro” value is 57.04 °C and the “∆Tm with 1 mM L-Pro” value is “+2.27 °C”. At recombinant HcProRS (setting [3]), the EC50 amounted to 13.6 ± 3.27 µM. On recombinant HcProRS (TSA EC50 with 1 mM Pro), the “fold better (lower) EC50” value is 6 fold and 7 fold.

Consider `NC(=O)c1nccnc1NCc1ccccc1F` [4i], for which the “Tm with 1 mM L-Pro” value on recombinant HcProRS (1 mM Pro) stood at 60.30 °C. Also, at recombinant HcProRS, the “∆Tm without L-Pro” value was −0.69 °C, the “Tm without L-Pro” value is 55.46 °C and the “∆Tm with 1 mM L-Pro” value was “+0.10 °C”.

As to `NC(=O)c1nccnc1NCc1ccccc1C(F)(F)F` [4j], the “Tm with 1 mM L-Pro” value at recombinant HcProRS (1 mM Pro) was found to be 67.12 °C. Moreover, at recombinant HcProRS, the “Tm without L-Pro” value is 58.13 °C and the “∆Tm with 1 mM L-Pro” value was “+6.92 °C”. Besides, the EC50 on recombinant HcProRS (setting [3]) turned out to be 15.3 ± 1.04 µM. Also, the “fold better (lower) EC50” value at recombinant HcProRS (TSA EC50 with 1 mM Pro) is 6 fold and 7 fold.

Regarding `COc1ccc(CNc2nccnc2C(N)=O)c(OC)c1` [4k], the “Tm with 1 mM L-Pro” value at recombinant HcProRS (1 mM Pro) was 58.48 °C. Moreover, on recombinant HcProRS, the “∆Tm without L-Pro” value was −0.07 °C, the “Tm without L-Pro” value was 56.08 °C and the “∆Tm with 1 mM L-Pro” value is −1.72 °C.

Regarding `O=C(O)c1cnccn1` [POA, pyrazinoic acid, reference compound], the “Tm with 1 mM L-Pro” value at recombinant HcProRS (1 mM Pro) came to 59.06 °C. On recombinant HcProRS, the “∆Tm without L-Pro” value is −0.63 °C, the “Tm without L-Pro” value is 55.52 °C, the “∆Tm with 1 mM L-Pro” value was −1.14 °C and the “effect on Tm (in words)” value is “no effect on Tm”.

Take `NC(=O)c1cnccn1` [PZA, pyrazinamide]: the “Tm with 1 mM L-Pro” value at recombinant HcProRS (1 mM Pro) was found to be 59.04 °C. In addition, at recombinant HcProRS, the “∆Tm without L-Pro” value is −0.09 °C, the “Tm without L-Pro” value worked out at 56.06 °C, the “∆Tm with 1 mM L-Pro” value was −1.16 °C and the “effect on Tm (in words)” value was “no effect on Tm”.

As to `O=C(O)[C@@H]1CCCN1` [Pro, proline], at recombinant HcProRS (1 mM Pro, no compound), the “increase of Tm of HcProRS by natural substrate Pro” value was found to be 4 °C.

The term EC50 denotes the concentration that produces a half-maximal response. As usually defined, the IC50 is the midpoint of a concentration-inhibition curve. The Kd is the free concentration of one partner at which half of the binding sites on the other are occupied at equilibrium, for simple one-to-one binding.
